Patent US7754228B2, “Cytotoxic T-cell epitopes from Chlamydia” (Novartis Vaccines and Diagnostics, Srl, priority 2002, dated 2010)
Entries after “also recorded” stand apart in the source; their conditions may differ. Like-named read-outs stand apart in the source and are kept apart here.

How the values were obtained:
HLA A2 = format: binding, human; conditions: for binding to HLA A2 (in words): in vitro binding assay
[1] = tested on: CD8^+ cells from immunised transgenic mice; test: IFN-γ/CD8+ ELISpot assay after DNA immunisation of HLA-A2 transgenic mice; format: cell-based; conditions: for Mean IFN-γ^+ve per 10^6 CD8^+ve cells: after subtraction of HepB negative controls; for number of IFN-γ secreting CD8^+ (in words): spleen cells of DNA immunised transgenic mice
Excerpt: Full-length C.pneumoniae and C.trachomatis genes encoding the polypeptides which contain CTL epitopes were amplified by PCR using the primers in Table 4 and cloned into plasmid expression vector pCMVKASF2-120, from which the gp120 sequence had been previously excised by treatment with NheI and SalI restriction enzymes. The chlamydial sequences were thus downstream of the tPA signal sequence.
The plasmids were used for DNA immunisation of transgenic mice expressing the human HLA-A2 gene which express a chimeric class I molecule composed of the α1 and α2 domains of HLA-A2.1 and the α3 transmembrane and cytoplasmic domains of H-2K^b.
Mice were immunised at days 0, 21 and 35 by intramuscular injection of 50μg endotoxin-free recombinant plasmid DNA. One week after the third immunisation, the animals were sacrificed, spleens were removed and CD8+ cells were purified by means of CD8α(Ly-2) Microbeads and LS Separation Columns following the technical procedures described by Miltenyi Biotec™. These CD8^+ cells were tested by Elispot assay to detect cells which secrete IFN-γ in response to given peptides. The Elispot procedure was as follows: • 1. 96-well nitrocellulose plates are coated with 5 μg/ml anti-mouse IFN-γ in 100 μl carbonate buffer, pH 9.2. Cover plate with lid and incubate overnight (o.n.) at 4° C. • 2. Discard coating antibody. Rinse plates 3 times with PBS (200 μl per rinse). Shake excess liquid from plate and pat bottom of plate with dry absorbent paper. • 3. Add 200 μl blocking solution (PBS-BSA 1%) to each well to saturate remaining binding sites and incubate 2 hours at 37° C. (or o.n. at 4° C.). • 4. Discard blocking solution, wash plate 3 times with PBS (200 μl per rinse). Shake excess liquid from plate and pat bottom of plate with dry absorbent paper. • 5. Add 100 μl complete medium and incubate 10 minutes at room temperature. Discard liquid and pat bottom of plate with dry absorbent paper. • 6. Add cells (5×10^4 CD8^+ from immunised transgenic mice and 2×10^5 irradiated spleen cells from non-immunised transgenic mice) with complete medium supplemented with the tested peptide (5, 10 or 20 μg/ml) and IL-2 (10 units/ml). • 7. Incubate 20-24 hours in a humidified 37° C., 5% CO2 incubator. • 8. Take off medium, add 200 μl per wash of ice-cold distilled water and incubate on ice for 10 minutes. Then wash ten times in wash buffer (PBS-Tween 0.05%), 2001 per wash. Shake excess liquid from plate and pat bottom of plate with dry absorbent paper. • 9. To detect IFN-γ spots, add 1 μg/ml biotinylated anti mouse IFN-γ in 100 μl in Elispot dilution buffer (PBS-BSA 1%) and incubate 2 hours at 37° C. • 10. Wash plate 3 times with wash buffer (PBS-Tween 0.05%), 200 μl per wash and 3 times with PBS without Tween (200 μl). Shake excess liquid from plate and pat bottom of plate with dry absorbent paper. • 11. Add 100 μl 1:2000 dilution of alkaline phosphatase-coupled avidin in PBS-BSA 1% (Sigma). Incubate 1 hour at 37° C. • 12. Wash plate 3 times with wash buffer (PBS-Tween 0.05%), 2001il per wash and 3 times with PBS without Tween (200 μl). Shake excess liquid from plate and pat bottom of plate with dry absorbent paper. • 13. Spots of […] secreting cells are visualised by adding 50 μl of the ready-to-use substrate BCIP/NBT (Sigma) dissolved in water. The reaction is stopped after 45 minutes at 37° C. by several washes with distilled water.
Values are shown after subtraction of HepB negative controls.

[2] = 10 μM peptide, RMA-S/A2 cells, peptide and only anti-mouse secondary antibody, FACS mean
[3] = 10 μM peptide, RMA-S/A2 cells, peptide, anti-A2 Mab BB7.2 and secondary antibody, FACS mean
[4] = 100 μM peptide, RMA-S/A2 cells, peptide and only anti-mouse secondary antibody, FACS mean
[5] = 100 μM peptide, RMA-S/A2 cells, peptide, anti-A2 Mab BB7.2 and secondary antibody, FACS mean

For GLTEEIDYV [CH10], the “High - B” value (HLA A2) was 139, the “Δ Mean” value (HLA A2) was 385 and the “Mean 1” value (HLA A2; [2]) was 202. The “Mean 2” value (HLA A2; [3]) was 587, the “binding to HLA A2 (in words)” value (HLA A2; RMA-S/A2 cells) was “bind to HLA A2” and the “Mean IFN-γ^+ve per 10^6 CD8^+ve cells” value ([1]; peptide dose 5 μg/ml) was 226 per 10^6 CD8^+ve cells. The “Mean IFN-γ^+ve per 10^6 CD8^+ve cells” value ([1]; peptide dose 10 μg/ml) was 233.3 per 10^6 CD8^+ve cells, the “Mean IFN-γ^+ve per 10^6 CD8^+ve cells” value ([1]; peptide dose 20 μg/ml) was 200 per 10^6 CD8^+ve cells and the “number of IFN-γ secreting CD8^+ (in words)” value (from here on “number”) [1] was “well above background levels”.

With SITVFRWLV [CH58] the “High - B” value (HLA A2) was −15, the “Δ Mean” value (HLA A2) was 145 and the “Mean 1” value (HLA A2; [2]) was 155. For the same sequence, the “Mean 2” value (HLA A2; [3]) was 300, the “binding to HLA A2 (in words)” value (HLA A2; RMA-S/A2 cells) was “negative results” and the “Mean IFN-γ^+ve per 10^6 CD8^+ve cells” value ([1]; peptide dose 5 μg/ml) was 1046 per 10^6 CD8^+ve cells. The “Mean IFN-γ^+ve per 10^6 CD8^+ve cells” value ([1]; peptide dose 10 μg/ml) was 980 per 10^6 CD8^+ve cells, the “Mean IFN-γ^+ve per 10^6 CD8^+ve cells” value ([1]; peptide dose 20 μg/ml) was 986 per 10^6 CD8^+ve cells and the “number” value [1] was “well above background levels; also recorded: strongly positive”.

With VMLIFEKKV [CH14] the “High - B” value (HLA A2) was 12, the “Δ Mean” value (HLA A2) was 258 and the “Mean 1” value (HLA A2; [4]) was 197. For the same sequence, the “Mean 2” value (HLA A2; [5]) was 455 and the “binding to HLA A2 (in words)” value (HLA A2; RMA-S/A2 cells) was “do not seem to bind”.

With “VQLAYVFDV (listed as Chlamydia pneumoniae) [CH16]” the “High - B” value (HLA A2) was 0, the “Δ Mean” value (HLA A2) was 232 and the “Mean 1” value (HLA A2; [4]) was 201. For the same sequence, the “Mean 2” value (HLA A2; [5]) was 433 and the “binding to HLA A2 (in words)” value (HLA A2; RMA-S/A2 cells) was “do not seem to bind”.

In the case of “WLFDLRFSV (listed as Chlamydia pneumoniae) [CH22]”, the “High - B” value (HLA A2) is reported as 73, the “Δ Mean” value (HLA A2) is reported as 227 and the “Mean 1” value (HLA A2; [2]) is reported as 163. For the same sequence, the “Mean 2” value (HLA A2; [3]) was 390 and the “binding to HLA A2 (in words)” value (HLA A2; RMA-S/A2 cells) was “bind to HLA A2”.

WLLRDDWLL [CH31] was tested, and the “High - B” value (HLA A2) was 89, the “Δ Mean” value (HLA A2) was 243 and the “Mean 1” value (HLA A2; [4]) was 165. The “Mean 2” value (HLA A2; [5]) was 408 and the “binding to HLA A2 (in words)” value (HLA A2; RMA-S/A2 cells) was “bind to HLA A2”.

For WLVFFNPFV [CH12], the “High - B” value (HLA A2) was 0, the “Δ Mean” value (HLA A2) was 211 and the “Mean 1” value (HLA A2; 1 μM peptide, RMA-S/A2 cells, peptide and only anti-mouse secondary antibody, FACS mean) was 204. For the same sequence, the “Mean 2” value (HLA A2; 1 μM peptide, RMA-S/A2 cells, peptide, anti-A2 Mab BB7.2 and secondary antibody, FACS mean) was 415 and the “binding to HLA A2 (in words)” value (HLA A2; RMA-S/A2 cells) was “do not seem to bind”.

With WMMGVVLMI [CH45] the “High - B” value (HLA A2) was 51, the “Δ Mean” value (HLA A2) was 211 and the “Mean 1” value (HLA A2; [2]) was 147. The “Mean 2” value (HLA A2; [3]) was 358 and the “binding to HLA A2 (in words)” value (HLA A2; RMA-S/A2 cells) was “bind to HLA A2”.

YLALDPDSV [CH48] was tested, and the “Δ Mean” value (HLA A2) was 303, the “Mean 1” value (HLA A2; [4]) was 148 and the “Mean 2” value (HLA A2; [5]) was 451. For the same sequence, the “rank in the binding assay among five epitopes predicted in protein 4376601” value (HLA A2; CH44 to CH48) was “strongest epitope using the binding assay” and the “binding to HLA A2 (in words)” value (HLA A2; RMA-S/A2 cells) was “bind to HLA A2; also recorded: positive in the binding assay”.

In the case of YLIVFVLTI [CH59], the “High - B” value (HLA A2) is reported as −37, the “Mean 1” value (HLA A2) is reported as 150 and the “Mean 2” value (HLA A2) is reported as 273. For the same sequence, the “Δ Mean” value (HLA A2) was 123.

YLLDFRWPL [CH37] was tested, and the “High - B” value (HLA A2) was 84, the “Δ Mean” value (HLA A2) was 238 and the “Mean 1” value (HLA A2; [2]) was 164. For the same sequence, the “Mean 2” value (HLA A2; [3]) was 402 and the “binding to HLA A2 (in words)” value (HLA A2; RMA-S/A2 cells) was “bind to HLA A2”.

In the case of YLLEEIYTV [CH6], the “High - B” value (HLA A2) is reported as 130, the “Δ Mean” value (HLA A2) is reported as 376 and the “Mean 1” value (HLA A2; [2]) is reported as 198. The “Mean 2” value (HLA A2; [3]) was 574, the “binding to HLA A2 (in words)” value (HLA A2; RMA-S/A2 cells) was “bind to HLA A2” and the “Mean IFN-γ^+ve per 10^6 CD8^+ve cells” value ([1]; peptide dose 5 μg/ml) was 106.8 per 10^6 CD8^+ve cells. The “Mean IFN-γ^+ve per 10^6 CD8^+ve cells” value ([1]; peptide dose 10 μg/ml) was 486.8 per 10^6 CD8^+ve cells, the “Mean IFN-γ^+ve per 10^6 CD8^+ve cells” value ([1]; peptide dose 20 μg/ml) was 266.6 per 10^6 CD8^+ve cells and the “number” value [1] was “well above background levels”.

YLMQKLQNV [CH29] was tested, and the “High - B” value (HLA A2) was 111, the “Δ Mean” value (HLA A2) was 265 and the “Mean 1” value (HLA A2; [4]) was 153. The “Mean 2” value (HLA A2; [5]) was 418 and the “binding to HLA A2 (in words)” value (HLA A2; RMA-S/A2 cells) was “bind to HLA A2”.

In the case of “YLTSYSPYV (listed as Chlamydia pneumoniae) [CH15]”, the “High - B” value (HLA A2) is reported as 76, the “Δ Mean” value (HLA A2) is reported as 322 and the “Mean 1” value (HLA A2; [4]) is reported as 235. For the same sequence, the “Mean 2” value (HLA A2; [5]) was 557 and the “binding to HLA A2 (in words)” value (HLA A2; RMA-S/A2 cells) was “bind to HLA A2”.

In the case of YMDNNLFYV [CH7], the “High - B” value (HLA A2) is reported as 102, the “Δ Mean” value (HLA A2) is reported as 348 and the “Mean 1” value (HLA A2; [2]) is reported as 203. The “Mean 2” value (HLA A2; [3]) was 551, the “binding to HLA A2 (in words)” value (HLA A2; RMA-S/A2 cells) was “bind to HLA A2” and the “ΔMean at high concentrations of peptide (in words)” value (HLA A2; high peptide concentrations, non-homogeneous fluorescent signal, most likely non-specific effects) was “Very low ΔMean values”. For the same sequence, the “Mean IFN-γ^+ve per 10^6 CD8^+ve cells” value ([1]; peptide dose 5 μg/ml) was 366 per 10^6 CD8^+ve cells, the “Mean IFN-γ^+ve per 10^6 CD8^+ve cells” value ([1]; peptide dose 10 μg/ml) was 400 per 10^6 CD8^+ve cells and the “Mean IFN-γ^+ve per 10^6 CD8^+ve cells” value ([1]; peptide dose 20 μg/ml) was 433 per 10^6 CD8^+ve cells. The “number” value [1] was “well above background levels”.

YVFDRILKV [CH13] was tested, and the “High - B” value (HLA A2) was 119, the “Δ Mean” value (HLA A2) was 365 and the “Mean 1” value (HLA A2; [4]) was 217. For the same sequence, the “Mean 2” value (HLA A2; [5]) was 582, the “binding to HLA A2 (in words)” value (HLA A2; RMA-S/A2 cells) was “bind to HLA A2” and the “Mean IFN-γ^+ve per 10^6 CD8^+ve cells” value ([1]; peptide dose 5 μg/ml) was 466.8 per 10^6 CD8^+ve cells. For the same sequence, the “Mean IFN-γ^+ve per 10^6 CD8^+ve cells” value ([1]; peptide dose 10 μg/ml) was 700 per 10^6 CD8^+ve cells, the “Mean IFN-γ^+ve per 10^6 CD8^+ve cells” value ([1]; peptide dose 20 μg/ml) was 540 per 10^6 CD8^+ve cells and the “number” value [1] was “well above background levels”.

In the case of YVVGFIIFL [CH44], the “High - B” value (HLA A2) is reported as 31, the “Δ Mean” value (HLA A2) is reported as 191 and the “Mean 1” value (HLA A2; [2]) is reported as 150. The “Mean 2” value (HLA A2; [3]) was 341.
